{"source": "patent US8735402B2", "about": "“Cycloalkyloxycarboxylic acid derivatives” (Sanofi, priority 2011, dated 2014)", "target": "T1, human Edg-1 receptor (Homo sapiens, UniProt P21453)", "T1 construct": "FLAG (N); expressed in transfected cells; membrane preparation", "T1 sequence (P21453 whole entry)": "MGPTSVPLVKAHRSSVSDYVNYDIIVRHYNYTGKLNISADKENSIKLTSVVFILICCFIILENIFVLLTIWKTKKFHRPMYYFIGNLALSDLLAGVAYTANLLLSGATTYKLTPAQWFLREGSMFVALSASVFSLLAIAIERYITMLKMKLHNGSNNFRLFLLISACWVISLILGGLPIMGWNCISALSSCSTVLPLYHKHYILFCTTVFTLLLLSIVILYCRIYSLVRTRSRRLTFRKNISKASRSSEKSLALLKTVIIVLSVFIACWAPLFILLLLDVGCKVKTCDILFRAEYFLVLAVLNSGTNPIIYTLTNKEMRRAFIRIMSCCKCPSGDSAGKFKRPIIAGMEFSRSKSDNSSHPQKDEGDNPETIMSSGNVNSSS", "test": "GTP-γ-S assay using human Edg-1 receptors (scintillation proximity assay, CHO Flp-In cell membrane preparation)", "assay_type": "biochemical", "details": "test compound 10 μM; 10 μM S1P regarded as 100% activation; background-corrected; triplicate", "source_text": "Determination of the Pharmacological Activity A) GTP-γ-S Assay Using Human Edg-1 Receptors In order to determine the Edg-1 receptor activation by the compounds of the invention, a GTP-γ-S ((GTP-γ-S=guanosine 5′-[thio]triphosphate) assay for G-protein coupled receptor binding based on the scintillation proximity assay principle was used, employing a cell membrane preparation from a CHO Flp-In cell line which constitutively overexpresses the human Edg-1 receptor. The Flp-In™ expression system (Invitrogen/Life Technologies™ cat. no. K6010-01) allows the generation of stable mammalian cell lines into which the gene of interest has been integrated through […] at a specific genomic location called Flp Recombination Target (FRT) site by means of a Flp recombinase encoded by the pOG44 expression plasmid. […] The EDG-1 membrane preparation obtained in (b) was initially used in a commercial scintillation proximity assay kit (Amersham/GE Healthcare, cat. no. RPNQ0210) to quantify the receptor activation. Here, the ligand-induced binding of ^35S-radiolabeled GTP-γ-S to the receptor-containing membrane causes the emission of light in the scintillation beads attached to the membrane preparation, which allows quantification of the in vitro activity of the Edg-1-agonistic compound. […]"}
{"smiles": "Cc1cc(-c2nc3cnc(Oc4cccc(Cl)c4)nc3o2)cc(C)c1OC1CC(C(=O)O)C1", "note": "(centres unmarked) [Example 1, 3-{4-[5-(3-Chlorophenoxy)oxazolo[5,4-d]pyrimidin-2-yl]-2,6-dimethylphenoxy}cyclobutanecarboxylic acid]", "values": [{"measurement": "Edg-1 receptor activation by example compounds at 10 μM in percent of the activation by 10 μM S1P (% activation)", "result": 116, "unit": "%"}]}
{"smiles": "Cc1cc(-c2nc3cnc(Oc4ccccc4F)nc3o2)cc(C)c1OC1CC(C(=O)O)C1", "note": "(centres unmarked) [Example 2, 3-{4-[5-(2-Fluorophenoxy)oxazolo[5,4-d]pyrimidin-2-yl]-2,6-dimethylphenoxy}cyclobutanecarboxylic acid]", "values": [{"measurement": "Edg-1 receptor activation by example compounds at 10 μM in percent of the activation by 10 μM S1P (% activation)", "result": 83, "unit": "%"}]}
